Test results as given in patent US6300350A, “Treatment of emphysema using RARy selective retinoid agonists” (priority 2000, dated 2001).

Tests used:
experimental emphysema = experiment: Alveolar repair in rat experimental emphysema, oral dosing; type: in vivo, rats; settings: 1 mg/kg/PO daily for two weeks
Procedure: (§1) Three (3) weeks post injury animals were treated with vehicle (Capmul solution) or retinoids prepared in Capmul and dosed orally at 1, 3, and 10 mg/kg body weight. Animals were treated for 14 days prior to termination of study.
Dosage was at 1 mg/kg/PO daily for two weeks.

RAR subtypes = settings: cited from earlier work
emphysema = settings: animal models of emphysema; cited from earlier work
alveolar septation = settings: postnatal administration; newborn rats; listed as ATRA; cited from earlier work
[1] = test system: elastase-induced emphysema; experiment: Alveolar repair in rat model of elastase-induced emphysema, intraperitoneal; type: in vivo, male Sprague Dawley rats; set-up: Alveolar Area: unit not given here
Procedure: Animals were divided into treatment groups of approximately eight. […] Three weeks post injury ATRA or a RAR selective agonist was dissolved in DMSO (20 mg/ml) and stored at -20 C. Fresh working stocks were prepared fresh daily by dilution in corn oil to a final concentration of 2 mg/ml. […] Control groups were challenged with elastase and 21 days later treated with Vehicle (DMSO/PBS) for 14 days. Animals were sacrificed 24 hours after the last dose of by exsanguination under deep anesthesia. Blood was collected at time of exanguination for analysis of changes in blood chemistry from respective treatments. The lungs were inflated with 10% neutral buffered formalin by intratracheal instillation at a constant rate (1 ml/gram body mass/min). The lung was excised and immersed in fixative for 24 hours prior to processing. Standard methods were used to prepare 5 um paraffin sections. Sections were stained with Hematoxylin and Eosin (H%E). Computerized Morphometric analysis was performed to determine the average alveolar size and alveolar number.

RXR receptors = settings: cited from earlier work
tropoelastin gene = experiment: RAR transactivation of steady state tropoelastin gene in normal human lung fibroblasts (CCD-16Lu); type: cell-based
Procedure: Transactivation of the tropoelastin gene in normal human lung fibroblasts (CCD-16Lu) was performed as described below. Cells were grown to confluence at which time fresh media +/- ATRA or selective retiniod was added to the basal culture. ATRA and/or selective retiniods were used at a concentration of 1×10^-7 M. The cell layer was lysed using a guanidinium-based buffer (TRIZOL/Sigma) for RNA extraction and analysis. Amplification of tropoelastin and GAPDH RNA was performed by standard quantitative RT-PCR (TAQMAN, Perken/Elmer) using appropriate selective primers. Tropo-elastin gene expression was normalized to the expression of standard house-keeping gene (GAPDH).
Samples were run in triplicate.

[2] = Plasma triglyceride levels in rats; type: in vivo; settings: plasma, 1 mg/kg/PO daily for two weeks
Procedure: as §1, with “Experimental emphysema was induced in rats as described in Example 2. Three” for “Three”, “study. Lung harvest and blood collection was performed as described in Example 2.” for “study.”
Quantitation of triglycerides contained in rat plasma was performed after using established procedures in a contact clinical laboratory facility. Briefly, plasma triglycerides were converted to dihdroxyacetone and H2 O2, by sequential treatment of plasma with lipase and glycerokinase according directions described by manufacturer of triglycerides/GPO kit (Boehringer Mannheim #1488872). H2 02 was quantitated calorimetrically in a Hitachi 911 Chemistry Analyzer. In rats normal triglyceride levels are 75-175 mg/dl.
Dosage was at 1 mg/kg/PO daily for two weeks. […] Therefore, it appears that RARα selective activity is linked to elevated triglyceride levels.

CC1=C(/C=C/C(C)=C/C=C/C(C)=C/C(=O)O)C(C)(C)CCC1 [RAR Agonist 4, All-trans retinoic acid]
% Repair (experimental emphysema): 37.6%
binding to the three RAR subtypes (in words) (RAR subtypes): binds with approximately equal affinity to all the three RAR subtypes
formation of new alveoli and elastic recoil (in words) (emphysema): can induce formation of new alveoli and return elastic recoil to near normal
number of alveoli / septation in lungs (in words) (alveolar septation): the capacity of dexamethasone to prevent the expression of CRBP and RARβ mRNA and subsequent alveolar septation in developing rat lung was abrogated by ATRA
% Repair ([1]; 0.5 mg/kg ip once daily, from 21 days post injury, 14 days): 50%
Alveolar Area ([1]; 0.5 mg/kg ip once daily, from 21 days post injury, 14 days, naive 1637 +/- 153, elastase + vehicle 3570 +/- 319): 2607 +/- 191
alveolar repair (in words) ([1]; elastase-treated rats, 0.5 mg/kg ip): induces alveolar repair, reversing the alveolar destruction caused by treatment with elastase
binding to RXR receptors (in words) (RXR receptors): does not bind to the RXR receptors
Tropo-elastin Expression (tropoelastin gene; CCD-16Lu, 1×10^-7 M, RT-PCR, triplicate, untreated control 30.90): 35.50 (Elastin/GAPDH) × 10^5
tropoelastin gene induction (in words) (tropoelastin gene; human lung fibroblasts, compared to the control): slightly induces tropoelastin gene induction
triglyceride levels (in words) [2]: either on the high end of normal or elevated
[Triglyceride] ([2]; normal rat 75-175 mg/dl): 182 mg/dL
